This is an account of results in patent publication US20260007639A1, “COMPOUNDS FOR THE TREATMENT OF NEUROMUSCULAR DISORDERS” (NMD PHARMA A/S, priority 2017, published 2026).

Usually EC50 stands for the concentration at which the effect is half-maximal. A high value points to a need for much substance.

T1 sequence (P35523 whole entry): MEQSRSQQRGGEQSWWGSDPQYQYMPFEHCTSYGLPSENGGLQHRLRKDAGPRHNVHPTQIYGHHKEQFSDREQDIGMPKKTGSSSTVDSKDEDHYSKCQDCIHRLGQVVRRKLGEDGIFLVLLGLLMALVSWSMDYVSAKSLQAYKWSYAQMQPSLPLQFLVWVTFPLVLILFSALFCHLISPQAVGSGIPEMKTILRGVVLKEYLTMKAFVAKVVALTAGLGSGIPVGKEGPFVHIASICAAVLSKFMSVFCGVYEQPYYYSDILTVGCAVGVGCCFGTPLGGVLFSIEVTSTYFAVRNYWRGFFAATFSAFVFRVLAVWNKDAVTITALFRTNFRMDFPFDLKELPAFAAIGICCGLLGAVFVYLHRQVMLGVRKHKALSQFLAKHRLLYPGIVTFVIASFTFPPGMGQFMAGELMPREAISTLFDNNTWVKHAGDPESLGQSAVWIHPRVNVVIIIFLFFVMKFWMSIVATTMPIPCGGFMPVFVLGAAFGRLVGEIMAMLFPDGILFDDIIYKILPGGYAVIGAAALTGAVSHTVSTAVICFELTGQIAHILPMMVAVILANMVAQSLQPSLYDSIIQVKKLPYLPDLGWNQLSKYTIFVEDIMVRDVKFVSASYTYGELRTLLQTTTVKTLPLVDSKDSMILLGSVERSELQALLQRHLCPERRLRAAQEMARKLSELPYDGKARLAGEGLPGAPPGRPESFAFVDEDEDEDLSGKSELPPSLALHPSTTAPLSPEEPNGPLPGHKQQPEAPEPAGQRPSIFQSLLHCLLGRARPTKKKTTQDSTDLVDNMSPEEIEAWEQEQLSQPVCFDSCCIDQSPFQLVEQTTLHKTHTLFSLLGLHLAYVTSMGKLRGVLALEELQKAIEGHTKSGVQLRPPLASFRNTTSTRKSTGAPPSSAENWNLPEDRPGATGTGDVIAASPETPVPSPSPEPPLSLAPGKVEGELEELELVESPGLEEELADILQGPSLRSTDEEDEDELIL

The first assay has as its target T1, human CIC-1 channels (Homo sapiens, UniProt P35523).
T1 construct: host or cells: CHO (Chinese hamster ovary) cells constitutively expressing human ClC-1
Kind of assay: Automated patch-clamp on human CIC-1 expressed in CHO cells: shift of half activation voltage ΔV1/2. Type of assay: cell-based. Particulars: compound in intracellular solution vs control cell patches; CHO cells expressing human CIC-1. On the procedure:
FIGS. 13A-13B: FIG. 13A illustrates the voltage protocol used to evoke currents in whole cell patches of CHO cells expressing human CIC-1 channels.
Experiments were performed using an automated patch clamp system that allowed high throughput testing of whole cell patches together with both intracellular and extracellular addition of compound.
Automated whole cell patch clamp experiments were performed with the Qpatch 16 system (Sophion Bioscience, Ballerup, Denmark) at room temperature. Data acquisition and analysis were performed in the Qassay software (ver. 5.6, Odense).
To evoke CIC-1 currents in whole cell patches, the membrane potential was initially stepped from a holding potential of −30 mV to +60 mV for 100 ms and then to various test voltages (sweeps) ranging from +120 mV to −140 mV in steps of 20 mV for 300 ms. To obtain tail currents, the membrane potential was stepped to −100 mV after each test voltage for 300 ms and then relaxed to −30 mV for 2 sec between sweeps (FIG. 3).
I/V relationships for whole cell instant and steady state current amplitudes were obtained by plotting average current densities at the beginning and at the end of the 300 ms step against the membrane potential (FIG. 4).
In order to determine the relative overall open probability (Po), the instantaneous tail currents were normalized to the maximal tail current obtained following the most positive voltage step and plotted against the test voltage. Plots of normalized tail currents from each whole cell patch were then fitted to a Boltzmann function allowing determination of half activation voltages (V1/2, FIG. 5).
For automated patch clamp experiments extracellular solutions contained: 2 mM CaCl2), 1 mM MgCl2, 10 mM HEPES, 4 mM KCl, 145 mM NaCl, 10 mM Glucose, pH adjusted to 7.4 with NaOH (2 M). Osmolality adjusted to ˜320 using sucrose.
Intracellular solutions contained: 80 mM CsF, 60 mM CsCl, 5/1 mM KOH/EGTA, 10 mM HEPES, 10 mM NaCl, pH adjusted to 7.2 with NaOH (2 M). Osmolality adjusted to ˜320 mOsm using sucrose.
Cells used in patch clamp experiments were Chinese hamster ovary cells (CHO) constitutively expressing human CIC-1 channels. The amino acid sequence encoded by the cDNA used to create this cell line was identical to the translated sequence for GenBank accession number NM_000083.2. Cells were produced by Charles River (Catalogue CT6175, Cleveland OH, USA) in a cryopreserved format. Experiments were performed on the cells directly after thawing (3×10^6 cells used in each experiment).
To evaluate the compound effect on CIC-1, when applied directly to the intracellular side of the cell membrane, the half activation voltage, V1/2, was determined from whole cell patches with compound added to the intracellular solution and then compared to V1/2 determined from control cell patches with only vehicle added to the intracellular solution. Additionally, the effect of extracellular added compound was evaluated by determine V1/2 and steady state current amplitudes before and after exchanging the extracellular solution to contain compound.
The difference in half activation voltage of CIC-1 channels, ΔV1/2, was determined as the difference between the cell patches treated intracellularly with compound and control cells patches and is reported in Table 4 below. A positive shift in ΔV 1/2 is reflecting CIC-1 channel inhibition by the tested compound. P-values of <0.05 is considered significant.
On the technique in general: In patch-clamp work, channel activity is measured electrically.
`O=C(O)COc1ccc(Br)cc1-c1ccon1` [Compound A-64, 2-[4-bromo-2-(1,2-oxazol-3-yl)phenoxy]acetic acid]: the “Δ1/2 (mV)” value amounted to 11.3 mV.
With `O=C(O)[C@H](CF)Oc1ccc(Br)cc1-c1ccon1` [Compound A-31, (2R)-2-[4-bromo-2-(1,2-oxazol-3-yl)phenoxy]-3-fluoropropanoic acid], the “Δ1/2 (mV)” value was found to be 13.8 mV.
Still for that read-out and setting: the figure for `C[C@H](Oc1ccc(Cl)cc1-c1ccno1)C(=O)O` [Compound A-26, (2S)-2-[4-chloro-2-(1,2-oxazol-5-yl)phenoxy]propanoic acid] is 21 mV.
On to `C[C@H](Oc1cc(F)c(Br)cc1-c1ccon1)C(=O)O` [Compound A-44, (2S)-2-[4-bromo-5-fluoro-2-(1,2-oxazol-3-yl)phenoxy]propanoic acid], for which the “Δ1/2 (mV)” value turned out to be 17.7 mV.
For the compound `C[C@H](Oc1ccc(Br)cc1-c1csnn1)C(=O)O` [Compound A-59, (2S)-2-[4-bromo-2-(1,2,3-thiadiazol-4-yl)phenoxy]propanoic acid], the “Δ1/2 (mV)” value turned out to be 7.9 mV.

A further assay addresses T2, CIC-1 channels (Rattus norvegicus, UniProt P35524).
T2 sequence (P35524 1-994): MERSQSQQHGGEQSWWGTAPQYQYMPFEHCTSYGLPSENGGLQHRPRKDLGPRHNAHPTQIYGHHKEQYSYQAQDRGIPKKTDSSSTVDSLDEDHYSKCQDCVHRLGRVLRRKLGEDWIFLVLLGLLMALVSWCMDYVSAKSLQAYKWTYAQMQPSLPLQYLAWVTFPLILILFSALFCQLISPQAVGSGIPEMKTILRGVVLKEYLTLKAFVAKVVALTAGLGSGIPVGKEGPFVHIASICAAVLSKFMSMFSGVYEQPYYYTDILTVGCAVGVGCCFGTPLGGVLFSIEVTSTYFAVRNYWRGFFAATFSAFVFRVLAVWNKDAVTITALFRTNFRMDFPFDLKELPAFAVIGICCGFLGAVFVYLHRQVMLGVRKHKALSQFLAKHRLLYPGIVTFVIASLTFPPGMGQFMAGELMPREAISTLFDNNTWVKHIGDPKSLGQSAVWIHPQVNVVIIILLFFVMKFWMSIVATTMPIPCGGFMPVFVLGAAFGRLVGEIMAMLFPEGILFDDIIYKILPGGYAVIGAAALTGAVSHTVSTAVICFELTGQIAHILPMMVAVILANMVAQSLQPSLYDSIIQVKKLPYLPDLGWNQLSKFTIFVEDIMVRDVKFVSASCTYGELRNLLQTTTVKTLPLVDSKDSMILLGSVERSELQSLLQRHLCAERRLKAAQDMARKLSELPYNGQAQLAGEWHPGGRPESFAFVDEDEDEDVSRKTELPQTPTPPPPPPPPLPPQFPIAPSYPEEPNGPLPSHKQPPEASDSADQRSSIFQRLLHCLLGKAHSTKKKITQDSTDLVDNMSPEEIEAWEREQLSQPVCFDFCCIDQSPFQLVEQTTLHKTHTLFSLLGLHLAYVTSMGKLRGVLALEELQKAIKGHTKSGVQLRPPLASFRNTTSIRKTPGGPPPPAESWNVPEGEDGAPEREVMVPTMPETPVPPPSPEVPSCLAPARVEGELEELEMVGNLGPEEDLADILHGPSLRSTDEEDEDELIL
The assay is described as follows: Electrophysiological measurement of compound inhibition of CIC-1 (Gm) in rat soleus muscle fibres: EC50 (Table 7).
Conditions: not given
Consider `O=C(O)COc1ccc(Br)cc1-c1ccon1` [Compound A-64, 2-[4-bromo-2-(1,2-oxazol-3-yl)phenoxy]acetic acid], for which the EC50 worked out at 7.4 µM.
Still for that read-out and setting: the result for `O=C(O)[C@H](CF)Oc1ccc(Br)cc1-c1ccon1` [Compound A-31, (2R)-2-[4-bromo-2-(1,2-oxazol-3-yl)phenoxy]-3-fluoropropanoic acid] reads 3.3 µM.
Take `C[C@H](Oc1ccc(Cl)cc1-c1ccno1)C(=O)O` [Compound A-26, (2S)-2-[4-chloro-2-(1,2-oxazol-5-yl)phenoxy]propanoic acid]: the EC50 is 3.6 µM.
`C[C@H](Oc1cc(F)c(Br)cc1-c1ccon1)C(=O)O` [Compound A-44, (2S)-2-[4-bromo-5-fluoro-2-(1,2-oxazol-3-yl)phenoxy]propanoic acid]: the response was half-maximal at 2.9 µM (EC50).
For the compound `C[C@H](Oc1ccc(Br)cc1-c1csnn1)C(=O)O` [Compound A-59, (2S)-2-[4-bromo-2-(1,2,3-thiadiazol-4-yl)phenoxy]propanoic acid], the EC50 stood at 5.6 µM.
